Reference: paper PMC3313951, “CUP-1 Is a Novel Protein Involved in Dietary Cholesterol Uptake in Caenorhabditis elegans” (PLoS ONE, 2012)
Positions count from the first letter of the chain named.

Experiments:
Assay in all cases: FRET by acceptor photobleaching, DHE donor to GFP acceptor, fixed transfected HEK293-FT cells
Type in all cases: cell-based
[1] = target: T1, CUP-1-GFP (Cholesterol Uptake Protein-1; ZK721.1/tag-130) (Caenorhabditis elegans, UniProt Q9GYF0, Y126G/Y576G); conditions: 5 uM DHE, 35 min, 37 °C; double CRAC mutant
T1 construct: gene chup-1; full-length CUP-1 (stop codon removed) with C-terminal EGFP (pEGFP-N1), transiently expressed in HEK293-FT cells; GFP is the FRET acceptor
T1 sequence (Q9GYF0 19-756 Y126G/Y576G): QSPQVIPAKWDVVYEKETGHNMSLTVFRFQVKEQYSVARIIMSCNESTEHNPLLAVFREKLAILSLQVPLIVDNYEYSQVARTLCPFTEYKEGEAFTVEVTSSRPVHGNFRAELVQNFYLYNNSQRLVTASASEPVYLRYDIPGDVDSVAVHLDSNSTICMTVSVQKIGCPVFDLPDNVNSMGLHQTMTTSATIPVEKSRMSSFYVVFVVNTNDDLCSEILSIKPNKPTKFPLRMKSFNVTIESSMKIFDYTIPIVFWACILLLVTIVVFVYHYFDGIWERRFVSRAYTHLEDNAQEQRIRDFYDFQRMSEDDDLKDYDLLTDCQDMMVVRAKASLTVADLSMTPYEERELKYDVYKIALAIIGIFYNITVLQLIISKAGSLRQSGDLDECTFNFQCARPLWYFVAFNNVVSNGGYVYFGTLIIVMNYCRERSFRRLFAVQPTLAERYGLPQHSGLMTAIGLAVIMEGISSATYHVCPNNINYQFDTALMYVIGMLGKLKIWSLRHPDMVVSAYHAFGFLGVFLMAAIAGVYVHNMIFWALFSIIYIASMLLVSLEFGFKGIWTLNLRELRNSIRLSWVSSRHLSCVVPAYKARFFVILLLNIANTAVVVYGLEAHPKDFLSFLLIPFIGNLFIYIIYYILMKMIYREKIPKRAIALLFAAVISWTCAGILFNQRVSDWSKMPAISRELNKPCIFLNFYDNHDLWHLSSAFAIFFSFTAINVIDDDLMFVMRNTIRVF

[2] = target: T2, CUP-1-GFP (Cholesterol Uptake Protein-1; ZK721.1/tag-130) (Caenorhabditis elegans, UniProt Q9GYF0, Y126G); conditions: 5 uM DHE, 35 min, 37 °C; extracellular CRAC motif mutant
T2 construct: gene chup-1; full-length CUP-1 (stop codon removed) with C-terminal EGFP (pEGFP-N1), transiently expressed in HEK293-FT cells
T2 sequence (Q9GYF0 19-756 Y126G): T1 sequence (Q9GYF0 19-756 Y126G/Y576G) with G558Y

[3] = target: T3, CUP-1-GFP (Cholesterol Uptake Protein-1; ZK721.1/tag-130) (Caenorhabditis elegans, UniProt Q9GYF0, Y576G); conditions: 5 uM DHE, 35 min, 37 °C; transmembrane CRAC motif mutant
T3 construct: gene chup-1; full-length CUP-1 (stop codon removed) with C-terminal EGFP (pEGFP-N1), transiently expressed in HEK293-FT cells; GFP is the FRET acceptor
T3 sequence (Q9GYF0 19-756 Y576G): T1 sequence (Q9GYF0 19-756 Y126G/Y576G) with G108Y

[4] = target: T4, CUP-1-GFP (Cholesterol Uptake Protein-1; ZK721.1/tag-130) (Caenorhabditis elegans, UniProt Q9GYF0); conditions: 5 uM DHE, 35 min, 37 °C; soluble GFP control
T4 construct: gene chup-1; full-length CUP-1 (stop codon removed) with C-terminal EGFP (pEGFP-N1), transiently expressed in HEK293-FT cells
T4 sequence (Q9GYF0 19-756): T1 sequence (Q9GYF0 19-756 Y126G/Y576G) with G108Y, G558Y

FRETeff [1]: 17.8% | FRETeff [3]: 16.7% | FRETeff [4]: > 28%
SMILES: CC(C)[C@@H](C)/C=C/[C@@H](C)[C@H]1CC[C@H]2C3=CC=C4C[C@@H](O)CC[C@]4(C)C3=CC[C@]12C [DHE, Dehydroergosterol]
FRETeff [2]: Mutagenization of the extracellular CRAC motif did not result in a statistically significant reduction
